Entries after “also recorded” stand apart in the source; their conditions may differ. Like-named read-outs stand apart in the source and are kept apart here.
Key:
HIV (HTLV-IIIB) = assay: microbe, parasite or virus in culture; assay type: cell-based; details: for suppression of HIV replication (in words): at the tested concentrations (20-500 μM)
Description: To examine the effect on HIV infected cell, MT-4 cells (number of cells at the start of culture 1×10^4/well), that underwent anti-HIV assay, were infected with an HIV (HTLV-IIIB, 200 CCID50/well), cultured at 37° C. for 4 days, and determined for the inhibitory effect on HIV replication, according to the method by Pauels, R. et al., in J. Virol. Methods, 16, 171-185 (1987). Suramin was used as a control.

[1] = test system: patient suffering from ARC (HIV infection); assay: Clinical Experiment 1: formulation 1 tablets with active ingredient A given to one ARC patient; assay type: in vivo, human
Description: (§1) The clinical experiments using the agent for anti-HIV infection of the present invention are explained in the following. The clinical experiments described below were conducted in Thailand without informing the patients of the compound names, chemical structures, etc. of the photosensitizing dyes used as the active ingredient.
The agent for anti-HIV infection of the present invention was administered to a patient suffering from ARC. They had been diagnosed with HIV infection five years before and received administration of AZT/ddI/RTV for 14 months.
His bronchial asthma, a symptom of ARC, was also cured.

[2] = test system: patients suffering from ARC or AIDS (HIV infection); assay: Clinical Experiment 2: formulation 1 tablets with active ingredient A given to seven patients with ARC or AIDS; assay type: in vivo, human
Description: as §1
Seven patients suffering from ARC or AIDS were given the agent for anti-HIV infection of the present invention of formulation 1 containing the active ingredient A. Their medical history before treatment was as follows:
Along therewith, their appetite increased, rash, one of the symptoms of ARC, decreased, hemorrhoid was cured, and insomnia was ameliorated.

[3] = cited from earlier work
[4] = 20 μM, MT-4 cells, HTLV-IIIB 200 CCID50/well, 4 days at 37° C.
[5] = 100 μM, MT-4 cells, HTLV-IIIB 200 CCID50/well, 4 days at 37° C.
[6] = 500 μM, MT-4 cells, HTLV-IIIB 200 CCID50/well, 4 days at 37° C.
[7] = after a further 16 weeks, daily dose 1000 μg, following 8 weeks at 500 μg
[8] = 8 weeks, 500 μg/day, one patient per line

What does the source list for CCN1C=CC(=CC=C(C=Cc2cc[n+](CC)c3ccccc23)c2cc[n+](CC)c3ccccc23)c2ccccc21.[I-].[I-] [Active ingredient A]?
Inhibition (%) of HIV replication (HIV (HTLV-IIIB); [4]): 1%; Inhibition (%) of HIV replication (HIV (HTLV-IIIB); [5]): 2%; Inhibition (%) of HIV replication (HIV (HTLV-IIIB); [6]): 1%; suppression of HIV replication (in words) (HIV (HTLV-IIIB); listed as active ingredients A): no anti-virus activity to suppress reproduction of HIV; also recorded: did not suppress the replication of HIV; other improvement (in words) ([1]; after 8 weeks, daily dose 500 μg): increased appetite and increased pectoral muscle; body weight ([1]; after 8 weeks, daily dose 500 μg, 55.6 kg before administration): 56.9 kg; CD4 count ([1]; after 8 weeks, daily dose 500 μg, 121/mm^3 before administration, person): 181 /mm^3; bronchial asthma, a symptom of ARC ([1]; after a further 16 weeks, daily dose 1000 μg): cured; CD4 count [1, 7]: 192 /mm^3; body weight [1, 7]: 57.1 kg; Improvement (Symptoms of ARC etc.) [2, 8]: Increased appetite; also recorded: Amelioration of insomnia; also recorded: Cure of hemorrhoids; also recorded: Decrease of rash; Side effects [2, 8]: None; overall clinical effect (in words) ([2]; HIV-infected patients): most of the patients showed an increase in the CD4 count and in the body weight; side effects such as toxic state ([3]; oral administration at 4 g/kg): does not cause any side effects

With CCCCCCCN1C(C)=CSC1=CC=C(C=Cc1scc(C)[n+]1CCCCCCC)c1scc(C)[n+]1CCCCCCC.[I-].[I-] [Active ingredient B] as the compound, how does the “Inhibition (%) of HIV replication” value (HIV (HTLV-IIIB); [4]) read?
The value was 2%.

What about the “Inhibition (%) of HIV replication” value (HIV (HTLV-IIIB); [5]) of the same compound?
The value was 1%.

What about the “Inhibition (%) of HIV replication” value (HIV (HTLV-IIIB); [6]) of the same compound?
Its value is 2%.

And the “suppression of HIV replication (in words)” value (HIV (HTLV-IIIB))?
Its value is “no anti-virus activity to suppress reproduction of HIV; also recorded: did not suppress the replication of HIV”.

What about the LD50 ([3]; intraperitoneal administration) of the same compound?
Its LD50 is 54 mg/kg.

What about the LD50 ([3]; oral administration) of the same compound?
The LD50 was 1500 mg/kg.

With Cc1ccc(C(=O)Nc2ccc(S(=O)(=O)O)c3cc(S(=O)(=O)O)cc(S(=O)(=O)O)c23)cc1NC(=O)c1cccc(NC(=O)Nc2cccc(C(=O)Nc3cc(C(=O)Nc4ccc(S(=O)(=O)O)c5cc(S(=O)(=O)O)cc(S(=O)(=O)O)c45)ccc3C)c2)c1 [Suramin, reference compound] as the compound, how does the inhibition at 0.8 µM (HIV (HTLV-IIIB); Human immunodeficiency virus 1, MT4, 96 h, 0.8 μM, MT-4 cells, HTLV-IIIB 200 CCID50/well, 4 days at 37° C., read-out: Inhibition (%) of HIV replication) read?
Its inhibition at 0.8 µM is 2%.

What about the inhibition at 4 µM (HIV (HTLV-IIIB); Human immunodeficiency virus 1, MT4, 96 h, 4 μM, MT-4 cells, HTLV-IIIB 200 CCID50/well, 4 days at 37° C., read-out: Inhibition (%) of HIV replication) of the same compound?
Its inhibition at 4 µM is 10%.

And the inhibition at 20 µM (HIV (HTLV-IIIB); Human immunodeficiency virus 1, MT4, 96 h, 20 μM, MT-4 cells, HTLV-IIIB 200 CCID50/well, 4 days at 37° C., read-out: Inhibition (%) of HIV replication)?
Its inhibition at 20 µM is 100%.

And the inhibition at 100 µM (HIV (HTLV-IIIB); Human immunodeficiency virus 1, MT4, 96 h, 100 μM, MT-4 cells, HTLV-IIIB 200 CCID50/well, 4 days at 37° C., read-out: Inhibition (%) of HIV replication)?
The inhibition at 100 µM was 100%.

Reference: patent US6455555B1, “Anti-HIV infection agents and method for treating HIV infection” (Kabushiki Kaisha Hayashibara Seibutsu Kagaku Kenkyujo, priority 2001, dated 2002)
